Experimental data reported in paper PMC12736018, “Stereoselective Cytotoxicity of Enantiopure 3,3-Dichloro-γ-lactams: Correlating In Vitro Activity with In Vivo Tolerability” (Molecules, 2025).
Values after ≈ are worked out from the molar mass of the structure shown.

Key:
MCF-7 cells = test: MTT cell viability assay, MCF-7; format: cell-based; details: Homo sapiens, MCF7; MCF-7, MTT, 24 h
Experimental: (§1) The murine Swiss albino fibroblast (3T3), the immortal human keratinocyte (HaCaT), the squamous cell carcinoma (A431), the human epithelial carcinoma (HeLa) and the human breast adenocarcinoma (MCF-7) cell lines were sourced from Celltec UB (Barcelona, Spain). All cells were maintained and grown in DMEM medium (4.5 g/L glucose) supplemented with 10% (v/v) FBS, 2 mM L-glutamine, 100 U/mL penicillin and 100 μg/mL streptomycin at 37 °C, 5% CO2. Cells were routinely cultured in 75 cm^2 culture flasks and were trypsinized using trypsin-EDTA when the cells reached approximately 80%. Cell concentration in the resulting suspension was assessed using the trypan blue assay, which enables direct discrimination between viable (unstained) and non-viable (blue) cells.
(§2) T3 and HaCaT cells (1 × 10^5 cells/mL), along with A431, HeLa, and MCF-7 cells (5 × 10^4 cells/mL), were cultured at defined seeding densities in the 60 central wells of a 96-well plate. Cells were first incubated for 24 h under standard incubator conditions (5% CO2, 37 °C). After this period, the culture medium was removed, and the cells were incubated for an additional 24 h with their corresponding compound solutions (1 mg/mL) previously diluted in a minimum amount of DMF (dimethylformamide) and then in DMEM medium supplemented with 5% FBS (100 µL) at the required concentration range (20 to 250 µg/mL). Cell viability following exposure to the lactam derivatives was evaluated using two complementary assays: NRU and MTT.
(§3) Only living cells can reduce the yellow tetrazolium salt 3-(4,5-dimethyl-2-thiazolyl)-2,5-diphenyltetrazolium bromide (MTT) to insoluble purple formazan crystals. After a 24 h incubation of the cells with their corresponding NPs, the medium was removed and 100 µL of MTT (Sigma-Aldrich, St. Louis, MO, USA) in PBS (5 mg/mL) diluted 1:10 in culture medium without phenol red and without FBS (Lonza, Verviers, Belgium) was added to the cells. After 3 h of incubation, the medium was removed. Thereafter, 100 µL of DMSO (Sigma-Aldrich, St. Louis, MO, USA) was added to each well to dissolve the purple formazan crystals. Agitation and absorbance measurements of the extracted solution were carried out under the same conditions described for the NRU assay. The effect of each treatment was then expressed as the percentage of tetrazolium salt reduction by viable cells relative to untreated controls.
(§4) The half-maximal inhibitory concentration (IC50) values for the different formulations, across cell lines and experimental endpoints, were obtained by fitting the concentration-dependent viability curves. […] These findings reflect the very low cytotoxicity of the compounds toward these cell lines.

A431 cells = test: MTT cell viability assay, A431; format: cell-based; details: Homo sapiens, A-431, 24 h
Experimental: as §1, §2, §3, §4

HeLa cells = test: MTT cell viability assay, HeLa; format: cell-based; details: Homo sapiens, 24 h
Experimental: as §1, §2, §3, §4

zebrafish embryos = test: Touch-evoked response (TER) test; format: in vivo; details: 72 hpf, after 2 h washout
Experimental: Adult zebrafish, both male and female, were procured from a commercial supplier (Pisciber, Barcelona, Spain) and housed in a closed flow-through system with standardized dilution water, as specified in ISO 7346-1 [16] (2 mM CaCl2·2H2O; 0.5 mM MgSO4·7H2O; 0.75 mM NaHCO3; 0.07 mM KCl). The fish were maintained at a temperature of 26 ± 1 °C on a 14 h light and 10 h dark cycle and were daily fed in the morning with Artemia salina, and with commercial flake food in the afternoon (SDS400, Special Diet Services, Dietex, France). The day before eggs were needed, males and females were placed in a breeding tank with plants at a 2:1 male-to-female ratio. The following morning, eggs were collected 30 min after the lights were turned on. […]
At 72 hpf, test solutions were replaced with 0.3× Danieau’s solution without the chemical and incubated at 27 °C ± 1 °C for 2 h. […] In brief, videos were recorded using a Casio Exilim EX-ZR200 video camera (Tokyo, Japan) and the distance swam by zebrafish embryos was measured after three mechanical stimuli, applied to the tail with a forceps tip (Fine Science Tools, Dumont #5, Foster City, CA, USA) at 10 s intervals. […] Six larvae per concentration group were evaluated in at least three independent experiments.
Statistical analysis was performed using GraphPad Prism v.10.0.2. TER test was analyzed using one-way ANOVA and the post-hoc multiple-comparison Dunnett test. […]

Hemolysis assay = format: cell-based; details: human, human erythrocyte suspension, pH 7.4, 10 and 80 µg/mL
Experimental: Human blood samples were obtained from the Banc de Sang i Teixits de Barcelona (Barcelona, Spain) under the Catalan Department of Health. Blood was collected in tubes containing the anticoagulant EDTA-K3. Samples were centrifuged at 3000 rpm and 4 °C for 10 min (Megafuge 2.0 R, Heraeus Instruments, Hanau, Germany) to promote sedimentation, after which plasma was carefully eliminated using a Pasteur pipette. The remaining pellet was washed with PBS (pH 7.4) three times to remove residual leukocytes and platelets while concentrating erythrocytes. After the final wash, the erythrocyte pellet was resuspended in PBS (pH 7.4) at a 1:1 ratio to achieve a final erythrocyte concentration of 8 × 10^9 cells/mL.
The hemolysis assay is used to evaluate the ability of the tested compounds to disrupt erythrocyte membranes. Stock solutions of each compound were prepared in PBS (pH 7.4) at a concentration of 1 mg/mL. Volumes ranging from 10 to 80 μL were transferred into polystyrene tubes, followed by the addition of 25 µL of the erythrocyte suspension, bringing the total volume to 1 mL. The samples were incubated at room temperature under gentle rotation and subsequently centrifuged at 10,000 rpm for 5 min. The absorbance of the resulting supernatants at 540 nm (Shimadzu UV-160A, Shimadzu, Duisburg, Germany) was measured and compared with that of the positive control (erythrocytes hemolyzed with distilled water) and the negative control (erythrocytes suspension in PBS, pH 7.4).
The degree of hemolysis was determined using the following equation:Hemolysis (%) = 100 × (Abs − Abs0)/(Abs100 − Abs0) where Abs, Abs0 and Abs100 are the absorbance of the test samples, of the suspension treated with isotonic phosphate–buffered saline (PBS) and of the suspension of complete hemolysis treated with distilled water, respectively.

| Structure (SMILES) | IC50 (MCF-7 cells) [µg/mL] | IC50 (A431 cells) [µg/mL] | IC50 (HeLa cells) [µg/mL] | concentration from which a statistically significant adverse effect was observed in the TER (zebrafish embryos) [µg/mL] | hemolysis (Hemolysis assay) [%] |
| --- | --- | --- | --- | --- | --- |
| C[C@@H]1CN([C@@H](C)c2ccccc2)C(=O)C1(Cl)Cl [Compound 3, (R)-3,3-dichloro-4-methyl-1-((S)-1-phenylethyl)pyrrolidin-2-one] | 193 (≈ 708 µM) | 56 (≈ 206 µM) | 184 (≈ 675 µM) | ≥ 7.8 | < 2 |
| C[C@H](c1ccccc1)N1C[C@H](C)C(Cl)(Cl)C1=O [Compound 4] | 77.8 (≈ 286 µM) | 164 (≈ 604 µM) | 94.3 (≈ 346 µM) | ≥ 7.8 | < 2 |
